“And” between values parts separate entries of the source, which are not always exact repeats. Equal values may be shown once.

In general, IC50 refers to the concentration that gives 50% inhibition. Low readings indicate higher potency, high ones lower potency.

In this assay the test system is HCV replicon. The class given is cell-based.
Consider `CCOC(=O)Nc1ccc(-c2c(C#N)c3ccc(OCC)cc3n2C(C)C)cc1` [Compound 1065], for which the IC50 is 0.5 to 2 µM and < 0.5 µM.

In turn, `CCOc1ccc2c(C#N)c(-c3ccc(NC(=O)NCCc4ccccc4)cc3)n(C(C)C)c2c1` [Compound 1102] showed an IC50 below 0.5 µM.

Turning to `CCOc1ccc2c(C#N)c(-c3ccc(NC(=O)CCc4ccccc4)cc3)n(CC)c2c1` [Compound 901], the IC50 fell in the range of 0.5 to 2 µM.

In the case of `COc1ccc2c(C#N)c(-c3ccc(NC(=O)OCc4ccccc4)cc3)n(C3CCC3)c2c1` [Compound 1079], the half-inhibitory concentration (IC50) is below 0.5 µM.

`CCn1c(-c2ccc(NP(=O)(OC)OC)cc2)c(C#N)c2ccc(OC)cc21` [Compound 944] returned an IC50 of 0.5 to 2 µM.

As for `CCn1c(-c2ccc(NC(=O)OCC(C)C)cc2)c(C#N)c2ccc(OCCF)cc21` [Compound 947], the IC50 was below 0.5 µM.

In the case of `CCCn1c(-c2ccc(NC(=O)OCCF)cc2)c(C#N)c2ccc(OCC)cc21` [Compound 1064], the IC50 fell in the range of 0.5 to 2 µM.

Consider `CCCOC(=O)Nc1ccc(-c2c(C#N)c3ccc(OC)cc3n2CC)cc1C` [Compound 965], for which the IC50 lay in the range of 0.5 to 2 µM.

As for `CCn1c(-c2ccc(NS(=O)(=O)CC)cc2)c(C#N)c2ccc(C(=O)OC)cc21` [Compound 968], the IC50 is < 0.5 µM and 0.5 to 2 µM.

With `CCCOC(=O)Nc1ccc(-c2c(C#N)c3ccc(OC(F)F)cc3n2CC)cc1` [Compound 1132], the IC50 lay within 0.5 to 2 µM.

Compound `CCOc1ccc2c(C#N)c(-c3ccc(NP(=O)(OC)OC)cc3)n(CC)c2c1` [Compound 942] yielded an IC50 of 0.5 to 2 µM.

For `CCOc1ccc2c(c1)c(C#N)c(-c1ccc(NC(=O)OC3CCOC3)cc1)n2C1CCC1` (stereo not shown) [Compound 1297], the IC50 is 0.5 to 2 µM.

In the case of `CCCn1c(-c2ccc(NC(=O)OC(C)C)cc2)c(C#N)c2ccc(OCC)cc21` [Compound 1056], the IC50 is below 0.5 µM.

For the compound `CCn1c(-c2ccc(N3CCCS3(=O)=O)cc2)c(C#N)c2ccc(N)cc21` [Compound 1050], the IC50 fell in the range of 0.5 to 2 µM.

On to `CCNc1ccc(-c2c(C#N)c3ccc(OCC)cc3n2C2CC2)cc1` [Compound 1311], for which the IC50 is below 0.5 µM.

Take `N#Cc1c(-c2ccc(NS(=O)(=O)C3CC3)cc2)n(C2CCC2)c2cc(OCC3CCCO3)ccc12` (stereo not shown) [Compound 1280]: the concentration for half-maximal inhibition (IC50) was below 0.5 µM.

With `CCC(C)OC(=O)Nc1ccc(-c2c(C#N)c3ccc(OC(F)F)cc3n2CC2CC2)cc1` (stereo not shown) [Compound 1268], the IC50 is 0.5 to 2 µM.

Regarding `COc1ccc2c(C#N)c(-c3ccc(NC(=O)OCC(C)(C)C)cc3)n(C3CCC3)c2c1` [Compound 1078], the concentration for half-maximal inhibition (IC50) was < 0.5 µM and 0.5 to 2 µM.

`COc1ccc2c(C#N)c(-c3ccc(NS(=O)(=O)C(C)C)cc3)n(CC3CCCC3)c2c1` [Compound 891] had an IC50 of 0.5 to 2 µM.

Consider `CCn1c(-c2ccc(NC(=O)OC(C)(C)C)cc2)c(C#N)c2ccc(Br)cc21` [Compound 1048], for which the half-inhibitory concentration (IC50) lay within 0.5 to 2 µM.

As to `CCn1c(-c2ccc(N3CCCS3(=O)=O)cc2)c(C#N)c2ccc(OC(F)F)cc21` [Compound 1026], the IC50 was 0.5 to 2 µM and < 0.5 µM.

As for `COc1ccc2c(c1)c(C#N)c(-c1ccc(NC(=O)OCC(C)(C)C)cc1)n2C1CCC1` [Compound 1233], the IC50 is below 0.5 µM.

`CCn1c(-c2ccc(NC(=O)NC(C)C)c(F)c2)c(C#N)c2ccc(OC)cc21` [Compound 911] yielded an IC50 of 0.5 to 2 µM.

`CCOc1ccc2c(c1)c(C#N)c(-c1ccc(NC(=O)NC(C)C)cc1)n2C1CCC1` [Compound 1224] registered an IC50 of 0.5 to 2 µM.

`CCOc1ccc2c(C#N)c(-c3ccc(NS(=O)(=O)CCCCl)cc3)n(C3CCC3)c2c1` [Compound 935]: the IC50 was < 0.5 µM and 0.5 to 2 µM.

Compound `CCCOC(=O)Nc1ccc(-c2c(C#N)c3ccc(OCC)cc3n2CC2CC2)cc1` [Compound 1149] had an IC50 below 0.5 µM.

Consider `CCCn1c(-c2ccc(NC(=O)OCC)cc2)c(C#N)c2ccc(OCC)cc21` [Compound 1063], for which the IC50 was in the range of 0.5 to 2 µM.

`CC(C)OC(=O)Nc1ccc(-c2c(C#N)c3ccc(OCCN4CCOCC4)cc3n2C2CCC2)cc1` [Compound 1271] came in with an IC50 below 0.5 µM.

Compound `CCOc1ccc2c(C#N)c(-c3ccc(NC(=O)OC4CCOCC4)cc3)n(C3CCC3)c2c1` [Compound 1216] gave a half-inhibitory concentration (IC50) of 0.5 to 2 µM.

With `CCCOC(=O)Nc1ccc(-c2c(C#N)c3ccc(OCC)cc3n2CCC)cc1` [Compound 1055], the IC50 is 0.5 to 2 µM and < 0.5 µM.

`CCCOc1ccc2c(C#N)c(-c3ccc(NC(=O)OCC)cc3)n(C(C)C)c2c1` [Compound 1202] had an IC50 below 0.5 µM.

Compound `CCCCn1c(-c2ccc(NC(=O)NCCc3ccccc3)cc2)c(C#N)c2ccc(OCC)cc21` [Compound 1019] yielded an IC50 below 0.5 µM.

In turn, `CCNC(=O)Nc1ccc(-c2c(C#N)c3ccc(OC)cc3n2CC)cc1C` [Compound 966] showed an IC50 of 0.5 to 2 µM.

`CCn1c(-c2ccc(NS(=O)(=O)C(C)C)cc2)c(C#N)c2ccc(OC(F)(F)F)cc21` [Compound 884] displayed an IC50 below 0.5 µM.

`CCOc1ccc2c(C#N)c(-c3ccc(NC(=O)NC4CCCC4)cc3)n(CC3CC3)c2c1` [Compound 1173] displayed an IC50 below 0.5 µM.

In the case of `CCCCNC(=O)Nc1ccc(-c2c(C#N)c3ccc(OCC)cc3n2C(C)C)cc1` [Compound 1101], the 50% inhibitory concentration (IC50) was below 0.5 µM.

The compound `CCOc1ccc2c(c1)c(C#N)c(-c1ccc(NC(=O)OCC3CC3)cc1)n2C1CCC1` [Compound 1291] registered an IC50 below 0.5 µM.

For `CCCS(=O)(=O)Nc1ccc(-c2c(C#N)c3ccc(OC(F)F)cc3n2C2CCCC2)cc1` [Compound 1188], the IC50 fell in the range of 0.5 to 2 µM.

The compound `CCOC(=O)Nc1ccc(-c2c(C#N)c3ccc(OCC)cc3n2C2CCCC2)cc1` [Compound 1127] showed an IC50 below 0.5 µM.

As to `CCOc1ccc2c(C#N)c(-c3ccc(NC(=O)OCCF)cc3)n(C3CCC3)c2c1` [Compound 974], the IC50 was below 0.5 µM.

In turn, `CCn1c(-c2ccc(NS(C)(=O)=O)c(C)c2)c(C#N)c2ccc(OC)cc21` [Compound 959] came in with a concentration for half-maximal inhibition (IC50) of 0.5 to 2 µM.

Take `CCCS(=O)(=O)Nc1ccc(-c2c(C#N)c3ccc(OC(F)F)cc3n2C(C)C)cc1` [Compound 867]: the IC50 lay in the range of 0.5 to 2 µM.

Consider `CCOc1ccc2c(C#N)c(-c3ccc(NC(=O)OCCF)cc3)n(CC(C)C)c2c1` [Compound 1059], for which the IC50 lay in the range of 0.5 to 2 µM.

For `CCNC(=O)Nc1cccc(-c2c(C#N)c3ccc(OCCCN4CCCC4)cc3n2CC)c1` [Compound 1045], the IC50 was below 0.5 µM.

`CC(C)n1c(-c2ccc(NC(=O)O[C@H](C)C3CC3)cc2)c(C#N)c2ccc(Oc3ncccn3)cc21` [Compound 2208]: the IC50 was below 0.5 µM.

For `CCn1c(-c2ccc(N3CCCS3(=O)=O)cc2)c(C#N)c2ccc(OCCn3cccn3)cc21` [Compound 908], the IC50 was in the range of 0.5 to 2 µM.

With `C[C@@H](OC(=O)Nc1ccc(-c2c(C#N)c3ccc(OCCF)cc3n2C2CCC2)cc1)C1CC1` [Compound 2326], the IC50 is below 0.5 µM.

The compound `CCOc1ccc2c(C#N)c(-c3ccc(N4CCCS4(=O)=O)cc3)n(C3CCC3)c2c1` [Compound 980] had an IC50 above 2 µM.

The compound `CC(C)NC(=O)Nc1ccc(-c2c(C#N)c3ccc(OCCCN4CCN(C)CC4)cc3n2C2CCC2)cc1` [Compound 1307] showed an IC50 of 0.5 to 2 µM.

Regarding `CCCNC(=O)Nc1ccc(-c2c(C#N)c3ccc(OCC)cc3n2CC(C)C)cc1` [Compound 1061], the IC50 lay within 0.5 to 2 µM.

In the case of `CCNC(=O)Nc1ccc(-c2c(C#N)c3ccc(OCCF)cc3n2CC)cc1` [Compound 954], the IC50 lay in the range of 0.5 to 2 µM.

In turn, `CCNC(=O)Nc1ccc(-c2c(C#N)c3ccc(OCC)cc3n2CC(C)C)cc1` [Compound 1060] came in with a half-maximal inhibitory concentration (IC50) of 0.5 to 2 µM.

For the origin of these results see patent US7973069B2 (PTC Therapeutics, Inc., priority 2004, dated 2011).
